Results from patent US8138205B2, “Heteroarylalkoxy-substituted quinolone inhibitors of PDE4” (Kalypsys, Inc., priority 2006, dated 2012).

Assays:
Stability Protocol = type: physicochemical; details: pH 7.4 sodium phosphate buffer, preliminary shelf life (T90) estimated from stressed samples
Method: About 3 mg of a compound was dissolved in 3 mL of acetonitrile/water mixture (50/50). 100 μL of the stock solution was added to 20 mL each of 0.025 M pH 5.0 sodium acetate buffer (A5.0), 0.025 M pH 5.0 citrate buffer (C5.0) and 0.025 M pH 7.4 sodium phosphate buffer (P7.4). A two mL aliquot of each solution was kept in a glass vial equipped a cap lined with Teflon. Two vials containing the solution were stored at 4° C. or −20° C. as control. Other aliquots were stressed at RT, 45° C. or 75° C. for specified time check points, e.g. 1 day, 1 w, 2 w, 4 w, 8 w,12 w. The stressed samples in duplicate were assayed against the control using HPLC. The results were reported in % degradation. Preliminary shelf life (T90) was estimated assuming the rate of chemical degradation is double when the temperature is up 10° C.

PDE4B = molecular target: T1, PDE4B (Homo sapiens, UniProt Q07343); test: PDE/AK Biological Activity Assay (coupled PDE/adenylate kinase bioluminescent assay); type: biochemical; details: catalytic domain of PDE4B, read-out: PDE4 Enzyme IC50
T1 construct: hex-histidine (His6) (N); made in house
T1 sequence (Q07343 330-659 limits assumed, species assumed): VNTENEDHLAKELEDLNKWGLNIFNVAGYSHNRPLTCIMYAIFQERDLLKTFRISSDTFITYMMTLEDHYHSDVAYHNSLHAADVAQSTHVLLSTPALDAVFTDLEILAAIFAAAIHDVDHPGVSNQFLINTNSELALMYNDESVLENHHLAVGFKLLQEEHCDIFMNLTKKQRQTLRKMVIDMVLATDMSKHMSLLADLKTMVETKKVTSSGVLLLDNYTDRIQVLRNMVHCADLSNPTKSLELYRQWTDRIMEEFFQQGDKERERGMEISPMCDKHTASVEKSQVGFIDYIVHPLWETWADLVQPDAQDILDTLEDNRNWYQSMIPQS
Excerpt: Phosphodiesterases regulate the activity of the second messenger cyclic adenosine monophosphate (cAMP) by hydrolyzing cAMP to adenosine monophosphate (AMP). We developed a coupled PDE/AK bioluminescent high-throughput assay to measure the activity of phosphodiesterases. In the PDE/AK assay, the AMP produced from the hydrolysis of cAMP by phosphodiesterase is converted to adenosine diphosphate (ADP) by the phosphotransferase activity of adenylate kinase (also known as ADK or myokinase). Adenylate kinase will catalyze the conversion of 1 mole of AMP and 1 mole of ATP into 2 moles of ADP. Thus the conversion of AMP to ADP will result in the subsequent loss of ATP. The decrease in ATP concentration can be monitored as light output using luciferase in a reaction that requires ATP to produce light. The PDE/AK assay uses luciferase, which catalyzes the production of light from ATP present in the reaction mix. The amount of emitted light is inversely proportional to the level of AMP present in the reaction. Test compounds are incubated with the phosphodiesterases and phosphodiesterase inhibitors will decrease the rate of cAMP hydrolysis and decrease the subsequent production of AMP. Thus phosphodiesterase inhibitors will decrease the conversion of ATP to ADP and result in the greatest emission of light.
Compounds may be screened for functional potency in in vitro biochemical assays for their ability to inhibit the activity of phosphodiesterase (PDE) enzymes. A coupled PDE/AK assay was utilized to measure the inhibitory activity of compounds on PDE isoforms. The catalytic domain of PDE4B was fused to an amino-terminus hex-histidine affinity tag and purified. PDE4B enzyme was incubated with compounds for 10 minutes. Cyclic AMP substrate, ATP and adenylate kinase were then added to the PDE enzyme mix and incubated for 45 minutes at room temperature. A commercial ATP detection assay, Perkin Elmer's easyLite ATP detection reagent, was then added to measure the relative amount of ATP present in the reaction. After 10 minute incubation, the luminescent signal was quantitated with either the Perkin Elmer Viewlux or Molecular Devices Acquest or Analyst. Roflumilast and Rolipram are the positive controls used in the assay.

Solubility Protocol = type: physicochemical; details: aqueous buffer, thermodynamic from solid; pH 7.4, 0.1 M sodium phosphate buffer
Method: About 5 mg of a compound was mixed with 500 μL of pH 7.4, 0.1 M sodium phosphate buffer. The mixture was adjusted to the original pH of 7.4 and then mixed overnight or longer via rotary mixing. The sample was checked for pH and then filtered through a 0.45 μm filter. If the pH drifted away, the sample was adjusted to its original pH and mixed for at least 15 minutes before filtration. The filtrate was analyzed using HPLC.

| SMILES | IC50 (PDE4B) [nM] | solubility (Solubility Protocol) [µg/mL] | Stability, pH 7.4 (Stability Protocol) |
| --- | --- | --- | --- |
| COc1ccc2c(Nc3c(Cl)cncc3Cl)cc(=O)[nH]c2c1OCC(C)C [Example 61, 4-(3,5-dichloropyridin-4-ylamino)-8-isobutoxy-7-methoxyquinolin-2(1H)-one] | < 1000 |  | + (+ indicates ≧1 Year) |
| COc1ccc2c(Nc3c(Cl)cncc3Cl)cc(=O)[nH]c2c1OCCCCC(=O)N[C@@H](CC(=O)O)C(=O)O [Example 66, (S)-2-(5-(4-(3,5-dichloropyridin-4-ylamino)-7-methoxy-2-oxo-1,2-dihydroquinolin-8-yloxy)pentanamido)succinic acid] | < 1000 | ≥ 1000 |  |
| COc1ccc2c(Nc3c(C)cncc3C)cc(=O)[nH]c2c1OCCCCCCN1CCCC1 [Example 37, 4-(3,5-Dimethylpyridin-4-ylamino)-7-methoxy-8-(6-(pyrrolidin-1-yl)hexyloxy)quinolin-2(1H)-one] | < 1000 | ≥ 1000 |  |
| COc1ccc2c(Nc3c(Cl)cncc3Cl)cc(=O)[nH]c2c1OCCCCCCN [Example 28, 8-(6-Aminohexyloxy)-4-(3,5-dichloropyridin-4-ylamino)-7-methoxyquinolin-2(1H)-one] | < 1000 | ≥ 1000 |  |
| COc1ccc2c(Nc3c(Cl)cncc3Cl)cc(=O)[nH]c2c1OCCCCCCN1CCCNCC1 [Example 25, 8-(6-(1,4-Diazepan-1-yl)hexyloxy)-4-(3,5-dichloropyridin-4-ylamino)-7-methoxyquinolin-2(1H)-one] | < 1000 | ≥ 1000 |  |
| COc1ccc2c(Nc3c(C)cncc3C)cc(=O)[nH]c2c1OCCCCCCN1CCCCC1 [Example 36, 4-(3,5-Dimethylpyridin-4-ylamino)-7-methoxy-8-(6-(piperidin-1-yl)hexyloxy)quinolin-2(1H)-one] | < 1000 | ≥ 1000 |  |
| COc1ccc2c(Nc3c(Cl)cncc3Cl)cc(=O)[nH]c2c1OCCCCCc1nn[nH]n1 [Example 69, 8-(5-(2H-tetrazol-5-yl)pentyloxy)-4-(3,5-dichloropyridin-4-ylamino)-7-methoxyquinolin-2(1H)-one] | < 1000 |  | + (+ indicates ≧1 Year) |
| COc1ccc2c(Nc3c(C)cncc3C)cc(=O)[nH]c2c1OCCCCn1ccnc1 [Example 78, 8-(4-(1H-imidazol-1-yl)butoxy)-4-(3,5-dimethylpyridin-4-ylamino)-7-methoxyquinolin-2(1H)-one] | < 1000 |  | + (+ indicates ≧1 Year) |
| COc1ccc2c(Nc3c(C)cncc3C)cc(=O)[nH]c2c1OCCCCCCC(=O)O [Example 74, 7-(4-(3,5-dimethylpyridin-4-ylamino)-7-methoxy-2-oxo-1,2-dihydroquinolin-8-yloxy)heptanoic acid] | < 1000 | ≥ 1000 |  |
| COc1ccc2c(Nc3c(Cl)cncc3Cl)cc(=O)[nH]c2c1OCCCC(=O)O [Example 51, 4-(4-(3,5-dichloropyridin-4-ylamino)-7-methoxy-2-oxo-1,2-dihydroquinolin-8-yloxy)butanoic acid] | < 1000 | ≥ 1000 |  |
| COc1ccc2c(Nc3c(C)cncc3C)cc(=O)[nH]c2c1OCCCCCCn1ccnc1 [Example 80, 8-(6-(1H-imidazol-1-yl)hexyloxy)-4-(3,5-dimethylpyridin-4-ylamino)-7-methoxyquinolin-2(1H)-one] | < 1000 | ≥ 1000 |  |
| COc1ccc2c(Nc3c(C)cncc3C)cc(=O)[nH]c2c1OCCCCC(=O)O [Example 72, 5-(4-(3,5-dimethylpyridin-4-ylamino)-7-methoxy-2-oxo-1,2-dihydroquinolin-8-yloxy)pentanoic acid] | < 1000 | ≥ 1000 |  |
| COc1ccc2c(Nc3c(C)cncc3C)cc(=O)[nH]c2c1OCCCCCC(=O)O [Example 73, 6-(4-(3,5-dimethylpyridin-4-ylamino)-7-methoxy-2-oxo-1,2-dihydroquinolin-8-yloxy)hexanoic acid] | < 1000 | ≥ 1000 |  |
| COc1ccc2c(Nc3c(Cl)cncc3Cl)cc(=O)[nH]c2c1OCCCCCO [Example 42, 4-(3,5-dichloropyridin-4-ylamino)-8-(5-hydroxypentyloxy)-7-methoxyquinolin-2(1H)-one] | < 1000 | ≥ 1000 |  |
| COc1ccc2c(Nc3c(Cl)cncc3Cl)cc(=O)[nH]c2c1OCCCCO [Example 41, 4-(3,5-dichloropyridin-4-ylamino)-8-(4-hydroxybutoxy)-7-methoxyquinolin-2(1H)-one] | < 1000 | ≥ 1000 |  |
| COc1ccc2c(Nc3c(Cl)cncc3Cl)cc(=O)[nH]c2c1OCCCc1nn[nH]n1 [Example 67, 8-(3-(2H-tetrazol-5-yl)propoxy)-4-(3,5-dichloropyridin-4-ylamino)-7-methoxyquinolin-2(1H)-one] | < 1000 | ≥ 1000 |  |

More lines, main results first:

| IC50 (PDE4B) [nM] | solubility (Solubility Protocol) [µg/mL] | SMILES | Stability, pH 7.4 (Stability Protocol) |
| --- | --- | --- | --- |
| < 1000 |  | COc1ccc2c(Nc3c(C)cncc3C)cc(=O)[nH]c2c1OCCCCCn1ccnc1 [Example 79, 8-(5-(1H-imidazol-1-yl)pentyloxy)-4-(3,5-dimethylpyridin-4-ylamino)-7-methoxyquinolin-2(1H)-one] | + (+ indicates ≧1 Year) |
| < 1000 | ≥ 1000 | COc1ccc2c(Nc3c(C)cncc3C)cc(=O)[nH]c2c1OCCCCCN(C)C [Example 45, 8-(5-(dimethylamino)pentyloxy)-4-(3,5-dimethylpyridin-4-ylamino)-7-methoxyquinolin-2(1H)-one] |  |
| < 1000 | ≥ 1000 | COc1ccc2c(Nc3c(Cl)cncc3Cl)cc(=O)[nH]c2c1OCCCCCCN1CCCN(C)CC1 [Example 26, 4-(3,5-Dichloropyridin-4-ylamino)-7-methoxy-8-(6-(4-methyl-1,4-diazepan-1-yl)hexyloxy)quinolin-2(1H)-one] |  |
| < 1000 | ≥ 1000 | COc1ccc2c(Nc3c(C)cncc3C)cc(=O)[nH]c2c1OCCCCCCCC(=O)O [Example 75, 8-(4-(3,5-dimethylpyridin-4-ylamino)-7-methoxy-2-oxo-1,2-dihydroquinolin-8-yloxy)octanoic acid] |  |
| < 1000 | ≥ 1000 | COc1ccc2c(Nc3c(Cl)cncc3Cl)cc(=O)[nH]c2c1OCCCCCCN(C)CCCN(C)C [Example 27, 4-(3,5-Dichloropyridin-4-ylamino)-8-(6-((3-(dimethylamino)propyl)(methyl)amino)hexyloxy)-7-methoxyquinolin-2(1H)-one] |  |
| < 1000 | ≥ 1000 | COc1ccc2c(Nc3c(Cl)cncc3Cl)cc(=O)[nH]c2c1OCCCCCCN(C)CCO [Example 30, 4-(3,5-Dichloropyridin-4-ylamino)-8-(6-((2-hydroxyethyl)(methyl)amino)hexyloxy)-7-methoxyquinolin-2(1H)-one] |  |
| < 1000 | ≥ 1000 | COc1ccc2c(Nc3c(Cl)cncc3Cl)cc(=O)[nH]c2c1OCCCCCCN(C)CCCO [Example 33, 4-(3,5-Dichloropyridin-4-ylamino)-8-(6-((3-hydroxypropyl)(methyl)amino)hexyloxy)-7-methoxyquinolin-2(1H)-one] |  |
| < 1000 | ≥ 1000 | COc1ccc2c(Nc3c(Cl)cncc3Cl)cc(=O)[nH]c2c1OCCCCCCc1nn[nH]n1 [Example 71, 8-(6-(2H-tetrazol-5-yl)hexyloxy)-4-(3,5-dichloropyridin-4-ylamino)-7-methoxyquinolin-2(1H)-one] |  |
| < 1000 | ≥ 1000 | COc1ccc2c(Nc3c(Cl)cncc3Cl)cc(=O)[nH]c2c1OCCCCCCNCCO [Example 29, 4-(3,5-Dichloropyridin-4-ylamino)-8-(6-(2-hydroxyethylamino)hexyloxy)-7-methoxyquinolin-2(1H)-one] |  |
| < 1000 | ≥ 1000 | COc1ccc2c(Nc3c(Cl)cncc3Cl)cc(=O)[nH]c2c1OCCCCCCCCC(=O)O [Example 55, 9-(4-(3,5-dichloropyridin-4-ylamino)-7-methoxy-2-oxo-1,2-dihydroquinolin-8-yloxy)nonanoic acid] |  |
